Measured values from patent US10758534B2 (Vertex Pharmaceuticals Incorporated, priority 2014, dated 2020).

Molecular target: T1, F508del (Homo sapiens, UniProt P13569, DEL508-508)
T1 construct: expressed in transfected cells
Assay: Protocol 1: membrane potential optical assay (FLIPR III, voltage sensing dye), identification of potentiator compounds
Type: cell-based
Details: Table 3, compounds of Table 1
Outline: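 Membrane potential in forskolin-activated, temperature-rescued F508del NIH 3T3 cells is followed with a voltage-sensing dye on FLIPR III. A chloride ion gradient created at the single addition step provides the driving force, after prior compound treatment.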

T1 sequence (P13569 with tags, fused parts or gaps DEL508-508): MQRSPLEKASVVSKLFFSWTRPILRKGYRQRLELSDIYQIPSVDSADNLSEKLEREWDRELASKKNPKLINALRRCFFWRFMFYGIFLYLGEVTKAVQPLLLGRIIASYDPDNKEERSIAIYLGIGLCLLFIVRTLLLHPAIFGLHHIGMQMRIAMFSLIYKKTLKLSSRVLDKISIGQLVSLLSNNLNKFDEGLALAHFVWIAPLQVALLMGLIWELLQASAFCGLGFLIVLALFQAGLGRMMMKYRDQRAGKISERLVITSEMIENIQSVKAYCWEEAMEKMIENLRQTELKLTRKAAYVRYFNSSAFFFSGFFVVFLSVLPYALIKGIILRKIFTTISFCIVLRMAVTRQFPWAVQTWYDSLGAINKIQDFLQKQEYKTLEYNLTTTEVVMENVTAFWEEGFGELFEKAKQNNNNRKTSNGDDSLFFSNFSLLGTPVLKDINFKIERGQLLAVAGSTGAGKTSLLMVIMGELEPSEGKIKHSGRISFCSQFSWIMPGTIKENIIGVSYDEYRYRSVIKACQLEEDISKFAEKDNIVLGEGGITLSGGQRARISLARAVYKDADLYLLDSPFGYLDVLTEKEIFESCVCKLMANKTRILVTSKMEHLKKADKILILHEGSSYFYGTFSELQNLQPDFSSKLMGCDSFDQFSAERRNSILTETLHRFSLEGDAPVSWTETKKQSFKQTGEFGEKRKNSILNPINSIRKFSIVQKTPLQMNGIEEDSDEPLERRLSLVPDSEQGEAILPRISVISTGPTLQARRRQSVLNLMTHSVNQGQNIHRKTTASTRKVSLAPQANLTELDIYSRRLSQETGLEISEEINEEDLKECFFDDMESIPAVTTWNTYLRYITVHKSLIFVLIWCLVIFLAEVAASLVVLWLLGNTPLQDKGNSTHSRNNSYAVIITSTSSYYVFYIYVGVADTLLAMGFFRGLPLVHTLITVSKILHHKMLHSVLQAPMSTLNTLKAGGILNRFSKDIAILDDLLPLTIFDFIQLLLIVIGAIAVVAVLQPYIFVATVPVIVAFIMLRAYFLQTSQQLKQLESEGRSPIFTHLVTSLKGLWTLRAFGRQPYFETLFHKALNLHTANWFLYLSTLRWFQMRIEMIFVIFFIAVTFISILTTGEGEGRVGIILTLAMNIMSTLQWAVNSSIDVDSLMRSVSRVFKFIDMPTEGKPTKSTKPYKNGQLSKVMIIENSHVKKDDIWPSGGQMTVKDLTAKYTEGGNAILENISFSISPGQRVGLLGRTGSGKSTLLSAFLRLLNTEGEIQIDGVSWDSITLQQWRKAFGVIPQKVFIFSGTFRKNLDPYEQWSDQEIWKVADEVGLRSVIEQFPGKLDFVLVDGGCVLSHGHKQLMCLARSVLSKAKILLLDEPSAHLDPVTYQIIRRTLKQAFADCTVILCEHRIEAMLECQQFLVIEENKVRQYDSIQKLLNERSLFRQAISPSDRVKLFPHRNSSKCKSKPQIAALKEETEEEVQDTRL

SMILES	EC30
CC(C)COc1cc(F)cc(-c2ccc(C(=O)NS(=O)(=O)c3cccc(N)n3)c(N3C[C@@H]4CC[C@H]3C4)n2)c1 [Compound 1180, N-[(6-amino-2-pyridyl)sulfonyl]-2-[(1R,4S)-3-azabicyclo[2.2.1]heptan-3-yl]-6-(3-fluoro-5-isobutoxy-phenyl)pyridine-3-carboxamide]	+++ (“+++” means <3 uM)
CC1(C)C(CC2CC2)CCN1c1ncccc1C(=O)NS(=O)(=O)c1cccc(N)n1 (centres unmarked) [Compound 1794, N-[(6-amino-2-pyridyl)sulfonyl]-2-[3-(cyclopropylmethyl)-2,2-dimethyl-pyrrolidin-1-yl]pyridine-3-carboxamide]	++ (“++” means between 3 uM and 10 uM)
CC(C)COc1cc(F)cc(-c2ccc(C(=O)NS(=O)(=O)c3cccc(N)n3)c(C3=CCC(C)(C)CC3)n2)c1 [Compound 1493, N-[(6-amino-2-pyridyl)sulfonyl]-2-(4,4-dimethylcyclohexen-1-yl)-6-(3-fluoro-5-isobutoxy-phenyl)pyridine-3-carboxamide]	+++ (“+++” means <3 uM)
Cc1ccc(-c2ccc(C(=O)NS(=O)(=O)c3nccnc3N)c(-c3ccc(C)cc3)n2)cc1 [Compound 820, N-(3-aminopyrazin-2-yl)sulfonyl-2,6-bis(p-tolyl)pyridine-3-carboxamide]	+ (“+” means greater than 10 uM)
Cc1cc(C)c(Oc2nc(C(C)(C)C)ccc2C(=O)NS(=O)(=O)c2cccc(NCCN(C)C)n2)c(C)c1 [Compound 947, 6-tert-butyl-N-[[6-(2-dimethylaminoethylamino)-2-pyridyl]sulfonyl]-2-(2,4,6-trimethylphenoxy)pyridine-3-carboxamide]	+++ (“+++” means <3 uM)
CC(C)COc1cc(F)cc(-c2ccc(C(=O)NS(=O)(=O)c3cccc(N)n3)c(OC3(C)CCC3)n2)c1 [Compound 1644, N-[(6-amino-2-pyridyl)sulfonyl]-6-(3-fluoro-5-isobutoxy-phenyl)-2-(1-methylcyclobutoxy)pyridine-3-carboxamide]	+++ (“+++” means <3 uM)
CC(C)COc1cc(F)cc(-c2nc(N3C[C@@H](C)CC3(C)C)c(C(=O)NS(=O)(=O)c3cccc(N)n3)cc2Cl)c1 [Compound 1641, N-[(6-amino-2-pyridyl)sulfonyl]-5-chloro-6-(3-fluoro-5-isobutoxy-phenyl)-2-[(4S)-2,2,4-trimethylpyrrolidin-1-yl]pyridine-3-carboxamide]	+++ (“+++” means <3 uM)
Cc1cc(C)c(Oc2nc(-c3cccc(F)c3F)ccc2C(=O)NS(=O)(=O)c2cccc(N)n2)c(C)c1 [Compound 1244, N-[(6-amino-2-pyridyl)sulfonyl]-6-(2,3-difluorophenyl)-2-(2,4,6-trimethylphenoxy)pyridine-3-carboxamide]	+++ (“+++” means <3 uM)
COc1ccc(OC)c(-c2ccc(C(=O)NS(=O)(=O)c3ccc[nH]c3=O)c(N3C[C@@H](C)CC3(C)C)n2)c1 [Compound 1752, 6-(2,5-dimethoxyphenyl)-N-[(2-oxo-1H-pyridin-3-yl)sulfonyl]-2-[(4S)-2,2,4-trimethylpyrrolidin-1-yl]pyridine-3-carboxamide]	++ (“++” means between 3 uM and 10 uM)
C[C@@H]1CN(c2nc(-c3ccc(OCC(C)(C)C)nc3)ccc2C(=O)NS(=O)(=O)c2cccc(N)n2)C(C)(C)C1 [Compound 1504, N-[(6-amino-2-pyridyl)sulfonyl]-6-[6-(2,2-dimethylpropoxy)-3-pyridyl]-2-[(4S)-2,2,4-trimethylpyrrolidin-1-yl]pyridine-3-carboxamide]	+++ (“+++” means <3 uM)
C[C@@H]1CN(c2nc(C3CCCCO3)ccc2C(=O)NS(=O)(=O)c2cccc(N)n2)C(C)(C)C1 (stereo partly drawn) [Compound 1500, N-[(6-amino-2-pyridyl)sulfonyl]-6-tetrahydropyran-2-yl-2-[(4S)-2,2,4-trimethylpyrrolidin-1-yl]pyridine-3-carboxamide]	+++ (“+++” means <3 uM)
